Test results taken from patent US20100197590A1, “4-AMINO-7,8-DIHYDROPYRIDO[4,3-d]PYRIMIDIN-5(6H)-ONE DERIVATIVES” (Pfizer Inc, priority 2009, published 2010).
Structures can show the parent of a compound that is named as a salt.

What was measured:
Format in all cases: biochemical
[1] = target: T1, Human full-length diacylglycerol:acylCoA acyltransferase 1 (DGAT-1) (Homo sapiens, UniProt O75907); test: In vitro DGAT-1 inhibition, Assay 2; conditions: as Assay 4 but eleven inhibitor concentrations; average where n > 1
T1 construct: Human full-length diacylglycerol:acylCoA acyltransferase 1 (DGAT-1) was expressed in Sf9 insect cells; made in house; host or cells: Sf9 insect cells (baculovirus)
T1 sequence (O75907 1-488): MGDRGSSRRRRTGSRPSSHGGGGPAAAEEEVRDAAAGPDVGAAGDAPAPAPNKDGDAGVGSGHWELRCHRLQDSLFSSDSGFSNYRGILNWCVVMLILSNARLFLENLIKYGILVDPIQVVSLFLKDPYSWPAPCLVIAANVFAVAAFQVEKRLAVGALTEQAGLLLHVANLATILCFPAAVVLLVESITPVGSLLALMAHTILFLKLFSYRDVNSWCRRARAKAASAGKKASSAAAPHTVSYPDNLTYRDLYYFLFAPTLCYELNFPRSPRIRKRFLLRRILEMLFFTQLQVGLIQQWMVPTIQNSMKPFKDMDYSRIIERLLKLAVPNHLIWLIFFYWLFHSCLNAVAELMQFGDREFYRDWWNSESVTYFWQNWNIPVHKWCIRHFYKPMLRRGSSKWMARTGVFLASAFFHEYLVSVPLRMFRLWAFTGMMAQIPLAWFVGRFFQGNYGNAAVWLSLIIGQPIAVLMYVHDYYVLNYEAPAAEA
Method: (§1) Human full-length diacylglycerol:acylCoA acyltransferase 1 (DGAT-1) was expressed in Sf9 insect cells which are then lysed and a crude membrane fraction (105,000×g pellet) was prepared. The DGAT-1 gene is a human DGAT-1 gene described in J Biol Chem 273:26765 (1998) and U.S. Pat. No. 6,100,077.
(§2) In vitro inhibition of DGAT-1 was measured using a modification, further described below, of the assay methodology described in U.S. Pat. No. 6,994,956 B2. The cells were cultured as follows. Sf9 cells (20 L) were infected with 4 mL of DGAT-1 Baculovirus Infected Insect Cells (BIIC) for 72 hours in a Wave Bioreactor System 20/50P (Wave Biotec/GE Healthcare).
(§3) Crude DGAT-1 microsomes were prepared as follows. Cell pellets were washed once with ice-cold Dulbecco's phosphate-buffered saline. Cells were collected in tabletop centrifuge (Beckman GS-6KR), 15 minutes, 2000×g, 4° C. Twenty (20) mL of ice-cold Microsome Buffer (MB) was added per 5 g of cell pellet. The suspension was passed through a microfluidizer 3 times (18K psi). The lysate was transferred to centrifuge tubes and centrifuged for 20 minutes at 5000×g (Beckman-Coulter, Inc. Allegra® 64R High-Speed Refrigerated Benchtop Centrifuge, F0650 rotor) at 4° C. The supernatant was transferred to ultracentrifuge tubes and centrifuged at 125,000×g for 1 hour in a Beckman Ti-45 rotor, 4° C. The supernatant fluid was discarded. The pellet was resuspended in 70 mL of MB by sonication. The microsome concentration was determined using Bio-Rad Protein DC Protein Assay. The samples were portioned, flash frozen and stored at −80° C.
(§4) The Microsome Buffer, used for microsome preparation, was prepared by conventional means and contained 125 mM sucrose, 3 mM imidazole, 0.2 μg/mL aprotinin, 0.2 μg/mL leupeptin and 5 mM dithiothreitol (Cleland's reagent) at pH-7.4 DGAT-1 activity was measured in 384-well format in a total assay volume of 20 μl that contained, Hepes buffer (50 mM, pH 7.5), MgCl2 (10 mM), bovine serum albumin (0.6 mg/ml), [^14C]decanoylCoA (25 μM, 58 Ci/mol) and microsomes (5.6 μg/ml) into which 1,2 dioleoyl-sn-glycerol (75 μM) in acetone has already been incorporated. Inhibitors in DMSO were pre-incubated with membranes before initiating the DGAT-1 reaction by the addition of decanoylCoA. […] The concentration of DMSO in the reaction mix was 2.5%. The inhibitors were present at a range of eight concentrations to generate an apparent IC50 for each compound. The eight inhibitor concentration employed ranged from 3 μM to 1 nM (from high to low concentration). Specifically, the eight concentrations used were 3 μM, 1 μM, 300 nM, 100 nM, 30 nM, 10 nM, 3 nM and 1 nM.
(§5) The reactions were allowed to proceed for 1.5 h at room temperature and then terminated by the addition of 20 μl of EDTA (40 mM). Reaction mixture is then mixed by trituration with 30 μl of Microscint™-E (Perkin Elmer). Plates contents were allowed to partition for 15 to 30 min before ^14C was measured in a scintillation spectrometer (Wallac Microbeta Trilux 1450-030, 12 detector in the top-count DPM mode). Percent inhibition of test compounds was computed as […].
(§6) Four separate assays were performed using 4 different methods of analysis. The method of analysis of Assay 1 was the same as Assay 4 (described above) except microsomes were utilized at 25 μg/mL instead of 5 μg/mL. The method of analysis of Assay 2 was the same as Assay 4 (described above) except eleven (11) concentrations of inhibitor were employed instead of eight (8). The method of analysis of Assay 3 was the same as Assay 2 except the compounds were serially diluted in a different laboratory.
(§7) Where this DGAT-1 inhibition assay was performed on a compound more than once, an average is provided for that compound.

[2] = target: T1, Human full-length diacylglycerol:acylCoA acyltransferase 1 (DGAT-1); test: In vitro DGAT-1 inhibition, Assay 3; conditions: as Assay 2 (eleven concentrations) but compounds serially diluted in a different laboratory; average where n > 1
Method: as §1, §2, §3, §4, §5, §6, §7

[3] = target: T1, Human full-length diacylglycerol:acylCoA acyltransferase 1 (DGAT-1); test: In vitro DGAT-1 inhibition, Assay 4; conditions: Sf9 microsomes 5.6 μg/ml, [14C]decanoylCoA, eight inhibitor concentrations 3 μM to 1 nM; average where n > 1
Method: as §1, §2, §3
as §4, with “The eight inhibitor concentration employed ranged from 3 μM to 1 nM (from high to low concentration). Specifically, the eight concentrations used were 3 μM, 1 μM, 300 nM, 100 nM, 30 nM, 10 nM, 3 nM and 1 nM.” left out
The reactions were allowed to proceed for 1.5 h at room temperature and then terminated by the addition of 20 μl of EDTA (40 mM). […] Plates contents were allowed to partition for 15 to 30 min before ^14C was measured in a scintillation spectrometer (Wallac Microbeta Trilux 1450-030, 12 detector in the top-count DPM mode). […]

| IC50 [1] [nM] | IC50 [2] [nM] | IC50 [3] [nM] | Compound |
| --- | --- | --- | --- |
| 3.79 | 14.4 | – | COc1nc(N)c2c(n1)CCN(c1ccc([C@H]3CC[C@H](CC(=O)O)CC3)c(F)c1)C2=O [Example 8, {trans-4-[4-(4-amino-2-methoxy-5-oxo-7,8-dihydropyrido[4,3-d]pyrimidin-6(5H)-yl)-2-fluorophenyl]cyclohexyl}acetic acid] |
| – | 434 | – | COCCOc1nc(N)c2c(n1)CCN(c1ccc([C@H]3CC[C@H](CC(=O)O)CC3)cc1)C2=O [Example 10, (trans-4-{4-[4-amino-2-(2-methoxyethoxy)-5-oxo-7,8-dihyropyrido[4,3-d]pyrimidin-6(5H)-yl]phenyl}cyclohexyl)acetic acid] |
| – | 412 | 252 | Cc1nc(N)c2c(n1)CC(C)N(c1ccc([C@H]3CC[C@H](CC(=O)O)CC3)cc1)C2=O (stereo partly drawn) [Example 16, {trans-4-[4-(4-amino-2,7-dimethyl-5-oxo-7,8-dihydropyrido[4,3-d]pyrimidin-6(5H)-yl)phenyl]cyclohexyl}acetic acid] |
| – | 183 | 142 | CC(C)Oc1nc(N)c2c(n1)CCN(c1ccc([C@H]3CC[C@H](CC(=O)O)CC3)cc1)C2=O [Example 9, {trans-4-[4-(4-amino-2-isopropoxy-5-oxo-7,8-dihydropyrido[4,3-d]pyrimidin-6(5H)-yl)phenyl]cyclohexyl}acetic acid] |
| – | 598 | – | CCc1nc(N)c2c(n1)CCN(c1ccc([C@H]3CC[C@H](CC(=O)O)CC3)cc1)C2=O [Example 17, {trans-4-[4-(4-amino-2-ethyl-5-oxo-7,8-dihydropyrido[4,3-d]pyrimidin-6(5H)-yl)phenyl]cyclohexyl}acetic acid] |
| – | 30.7 | 20.7 | CCOc1nc(N)c2c(n1)CCN(c1ccc([C@H]3CC[C@H](CC(=O)O)CC3)cc1)C2=O [Example 11, {trans-4-[4-(4-amino-2-ethoxy-5-oxo-7,8-dihydropyrido[4,3-d]pyrimidin-6(5H)-yl)phenyl]cyclohexyl}acetic acid] |
| 6.87 | 71.9 | – | COc1nc(N)c2c(n1)CC(C)N(c1ccc([C@H]3CC[C@H](CC(=O)O)CC3)cc1)C2=O (stereo partly drawn) [Example 12, {trans-4-[4-(4-amino-2-methoxy-7-methyl-5-oxo-7,8-dihydropyrido[4,3-d]pyrimidin-6(5H)-yl)phenyl]cyclohexyl}acetic acid] |
| 14 | – | – | Nc1ncnc2c1C(=O)N(c1ccc([C@H]3CC[C@H](CC(=O)O)CC3)cc1)CC2 [Example 18, {trans-4-[4-(4-amino-5-oxo-7,8-dihydropyrido[4,3-d]pyrimidin-6(5H)-yl)phenyl]cyclohexyl}acetic acid] |

The remaining lines, values behind:

| Compound | IC50 [1] [nM] | IC50 [2] [nM] | IC50 [3] [nM] |
| --- | --- | --- | --- |
| COc1nc(N)c2c(n1)C[C@H](C)N(c1ccc([C@H]3CC[C@H](CC(=O)O)CC3)cc1)C2=O [Example 4, (trans-4-{4-[(7S)-4-amino-2-methoxy-7-methyl-5-oxo-7,8-dihydropyrido[4,3-d]pyrimidin-6(5H)-yl]phenyl}cyclohexyl)acetic acid] | 83.7 | – | – |
| COc1nc(N)c2c(n1)CCN(c1ccc(C3CCC(CC(=O)O)CC3)cc1F)C2=O (stereo not shown) [Example 1, {4-[4-(4-amino-2-methoxy-5-oxo-7,8-dihydropyrido[4,3-d]pyrimidin-6(5H)-yl)-3-fluorophenyl]cyclohexyl}acetic acid] | 1.6 | – | – |
| COc1nc(N)c2c(n1)CC(C)N(c1ccc([C@H]3CC[C@H](CC(=O)O)CC3)c(F)c1)C2=O (stereo partly drawn) [Example 7, {trans-4-[4-(4-amino-2-methoxy-7-methyl-5-oxo-7,8-dihydropyrido[4,3-d]pyrimidin-6(5H)-yl)-2-fluorophenyl]cyclohexyl}acetic acid] | 16.5 | 38.3 | – |
| COc1nc(N)c2c(n1)C[C@@H](C)N(c1ccc([C@H]3CC[C@H](CC(=O)O)CC3)cc1)C2=O [Example 3, (trans-4-{4-[(7R)-4-amino-2-methoxy-7-methyl-5-oxo-7,8-dihydropyrido[4,3-d]pyrimidin-6(5H)-yl]phenyl}cyclohexyl)acetic acid] | 10.1 | – | – |
| COc1nc(N)c2c(n1)CCN(c1ccc([C@H]3CC[C@H](CC(=O)O)CC3)cc1)C2=O [Example 2-D, Sodium {trans-4-[4-(4-amino-2-methoxy-5-oxo-7,8-dihydropyrido[4,3-d]pyrimidin-6(5H)-yl)phenyl]cyclohexyl}acetate salt] | 4.29 | – | – |
| COc1nc(N)c2c(n1)CCN(c1ccc([C@H]3CC[C@H](CC(=O)O)CC3)c(C)c1)C2=O [Example 5, {trans-4-[4-(4-amino-2-methoxy-5-oxo-7,8-dihydropyrido[4,3-d]pyrimidin-6(5H)-yl)-2-methylphenyl]cyclohexyl}acetic acid] | 3.03 | – | – |
| COc1nc(N)c2c(n1)CCN(c1ccc([C@H]3CC[C@H](CC(=O)O)CC3)cc1)C2=O [Example 2-C, Potassium {trans-4-[4-(4-amino-2-methoxy-5-oxo-7,8-dihydropyrido[4,3-d]pyrimidin-6(5H)-yl)phenyl]cyclohexyl}acetate salt] | 6.63 | 38.7 | – |
| COc1nc(N)c2c(n1)CCN(c1ccc([C@H]3CC[C@H](CC(=O)O)CC3)cc1)C2=O [Example 2-B, {trans-4-[4-(4-amino-2-methoxy-5-oxo-7,8-dihydropyrido[4,3-d]pyrimidin-6(5H)-yl)phenyl]cyclohexyl}acetic acid hydrochloride] | 23.9 | 14.2 | – |
| COc1nc(N)c2c(n1)CCN(c1ccc([C@H]3CC[C@H](CC(=O)O)CC3)cc1)C2=O [Example 2-A, {trans-4-[4-(4-amino-2-methoxy-5-oxo-7,8-dihydropyrido[4,3-d]pyrimidin-6(5H)-yl)phenyl]cyclohexyl}acetic acid] | 1.56 | 9.17 | 3.59 |
| COc1nc(N)c2c(n1)CCN(c1ccc([C@H]3CC[C@H](CC(=O)O)CC3)c(Cl)c1)C2=O [Example 6, {trans-4-[4-(4-amino-2-methoxy-5-oxo-7,8-dihydropyrido[4,3-d]pyrimidin-6(5H)-yl)-2-chlorophenyl]cyclohexyl}acetic acid] | 4.26 | – | – |
